According to PubChem BioAssay AID200 (DTP/NCI, 2004):
Where “and” joins values, the source holds several entries; their conditions need not be identical. Identical values can stand only once. Inconclusive results and toxic doses are left out.

System: B6C3F1 mice, B16 melanoma ip, median survival T/C
Experiment: NCI In Vivo Anticancer Drug Screen. Data for tumor model B16 Melanoma (intraperitoneal) in B6C3F1 mice
Conditions: endpoint: median survival time, higher = longer survival
Outline: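 Tumor-bearing mice received test compound; a separate group got vehicle only. Survival was then compared, with results reported as treated over control.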

[1] = dose: 12.5 mg/kg/injection, schedule: Q01DX009 (ip), vehicle: saline
[2] = dose: 25.0 mg/kg/injection, schedule: Q01DX009 (ip), vehicle: saline
[3] = dose: 100.0 mg/kg/injection, schedule: Q01DX009 (ip), vehicle: saline with Tween-80
[4] = dose: 25.0 mg/kg/injection, schedule: Q01DX009 (ip), vehicle: Klucel (hydroxypropylcellulose) (HPC)

`Cc1cc2nc3ccc(N)cc3oc-2cc1=[N+](C)C` was tested, and the T/C [1] was 106 % of control and the T/C [2] was 112 % of control.
In the case of `COC1/C=C\C=C(/C)C(=O)NC2=CC(=O)C(NCCCl)=C(CC(C)CC(OC)C(O)C(C)/C=C(/C)C1OC(N)=O)C2=O` (stereo not given), the T/C (dose: 3.0 mg/kg/injection, schedule: Q01DX009 (ip), vehicle: DMSO) is reported as 109 % of control and 103 % of control, the T/C (dose: 6.0 mg/kg/injection, schedule: Q01DX009 (ip), vehicle: DMSO) is reported as 112 % of control and 106 % of control and the T/C (dose: 12.0 mg/kg/injection, schedule: Q01DX009 (ip), vehicle: DMSO) is reported as 112 % of control and 123 % of control. The T/C (dose: 24.0 mg/kg/injection, schedule: Q01DX009 (ip), vehicle: DMSO) was 109 % of control and 120 % of control.
`Cc1cc2nc3c(=O)[nH]c(=O)nc-3n(CC(O)C(O)C(O)C(O)CO)c2cc1C` (stereo not given) was tested, and the T/C (dose: 25.0 mg/kg/injection, schedule: Q01DX009 (ip), vehicle: suspension in saline) was 104 % of control, the T/C (dose: 50.0 mg/kg/injection, schedule: Q01DX009 (ip), vehicle: suspension in saline) was 111 % of control and the T/C (dose: 100.0 mg/kg/injection, schedule: Q01DX009 (ip), vehicle: suspension in saline) was 102 % of control. For the same compound, the T/C (dose: 200.0 mg/kg/injection, schedule: Q01DX009 (ip), vehicle: suspension in saline) was 93 % of control.
`CN=C(N)N/N=C(\C)c1ccc2c(c1)Cc1ccccc1-2` was tested, and the T/C (dose: 12.5 mg/kg/injection, schedule: Q01DX009 (ip), vehicle: saline with Tween-80) was 111 % of control, the T/C (dose: 25.0 mg/kg/injection, schedule: Q01DX009 (ip), vehicle: saline with Tween-80) was 118 % of control and the T/C (dose: 50.0 mg/kg/injection, schedule: Q01DX009 (ip), vehicle: saline with Tween-80) was 119 % of control. For the same compound, the T/C [3] was 122 % of control.
`COc1ccc(C(Nc2ccccc2)C(=O)c2ccccc2)cc1` (stereo not given) was tested, and the T/C (dose: 6.25 mg/kg/injection, schedule: Q01DX009 (ip), vehicle: Klucel (hydroxypropylcellulose) (HPC)) was 102 % of control, the T/C (dose: 12.5 mg/kg/injection, schedule: Q01DX009 (ip), vehicle: Klucel (hydroxypropylcellulose) (HPC)) was 96 % of control and the T/C [4] was 96 % of control.
`CCCCCCCCCCCCCCC/C([O-])=N/[N+](C)(C)CC(C)O` (stereo not given) was tested, and the T/C (dose: 25.0 mg/kg/injection, schedule: Q01DX001 (ip), vehicle: saline with Tween-80) was 105 % of control, the T/C (dose: 50.0 mg/kg/injection, schedule: Q01DX001 (ip), vehicle: saline with Tween-80) was 96 % of control and the T/C (dose: 50.0 mg/kg/injection, schedule: Q01DX001 (ip), vehicle: saline) was 105 % of control. For the same compound, the T/C (dose: 100.0 mg/kg/injection, schedule: Q01DX001 (ip), vehicle: saline with Tween-80) was 97 % of control, the T/C (dose: 200.0 mg/kg/injection, schedule: Q01DX001 (ip), vehicle: saline with Tween-80) was 104 % of control and the T/C (dose: 200.0 mg/kg/injection, schedule: Q01DX001 (ip), vehicle: saline) was 86 % of control. The T/C (dose: 400.0 mg/kg/injection, schedule: Q01DX001 (ip), vehicle: saline with Tween-80) was 100 % of control.
With `C/C1=C/C(C)C(O)C(O)C(=O)C2(C)CNC3=C(O2)C(=O)c2c(cc(C)c(O)c2C1=O)C3=O` (stereo not given) the T/C (dose: 4.0 mg/kg/injection, schedule: Q01DX009 (ip), vehicle: distilled water + Tween-80) was 103 % of control, the T/C (dose: 8.0 mg/kg/injection, schedule: Q01DX009 (ip), vehicle: distilled water + Tween-80) was 100 % of control and the T/C (dose: 16.0 mg/kg/injection, schedule: Q01DX009 (ip), vehicle: distilled water + Tween-80) was 105 % of control. For the same compound, the T/C (dose: 32.0 mg/kg/injection, schedule: Q01DX009 (ip), vehicle: distilled water + Tween-80) was 103 % of control.
In the case of `C/C(=N\NC(=O)c1ccncc1)c1ccc(Cl)cc1`, the T/C (dose: 1.25 mg/kg/injection, schedule: Q01DX009 (ip), vehicle: saline) is reported as 96 % of control, the T/C (dose: 2.5 mg/kg/injection, schedule: Q01DX009 (ip), vehicle: saline) is reported as 98 % of control and the T/C (dose: 5.0 mg/kg/injection, schedule: Q01DX009 (ip), vehicle: saline) is reported as 107 % of control.
In the case of `Nc1ncnc2c1nnn2C1OC(CO)C(O)C1O` (stereo not given), the T/C (dose: 6.0 mg/kg/injection, schedule: Q01DX009 (ip), vehicle: Klucel (hydroxypropylcellulose) (HPC)) is reported as 113 % of control, the T/C (dose: 12.0 mg/kg/injection, schedule: Q01DX009 (ip), vehicle: Klucel (hydroxypropylcellulose) (HPC)) is reported as 115 % of control and the T/C [4] is reported as 176 % of control.
For `CN(CO)c1nc(N(C)CO)nc(N(C)CO)n1`, the T/C [1] was 113 % of control and 115 % of control, the T/C [2] was 118 % of control and the T/C (dose: 100.0 mg/kg/injection, schedule: Q01DX009 (ip), vehicle: saline) was 153 % of control and 190 % of control.
`O=C(N/N=C/c1ccccc1O)c1cccc([N+](=O)[O-])c1` was tested, and the T/C [3] was 103 % of control, the T/C (dose: 200.0 mg/kg/injection, schedule: Q01DX009 (ip), vehicle: saline with Tween-80) was 87 % of control and the T/C (dose: 400.0 mg/kg/injection, schedule: Q01DX009 (ip), vehicle: saline with Tween-80) was 96 % of control.
